{"source": "patent US20260242416A1", "about": "“ANTIMICROBIAL PEPTIDES” (priority 2023, published 2026)", "test_system": "E. coli ATCC 25922, Salmonella Enteritidis, S. aureus ATCC 29213", "assay": "Broth microdilution, panel result (at least one / all strains), Example 2", "format": "cell-based", "design": "key to inhibitory activity (asterisk): *Indicates inhibitory activity", "settings": "for inhibitory activity (asterisk): Table 14, against at least one of E. coli ATCC 25922, Salmonella Enteritidis, S. aureus ATCC 29213", "protocol": "The antimicrobial activity of the putative AMPs was determined by a broth microdilution assay as described by the Clinical and Laboratory Standards Institute, with the published adaptations for testing of cationic peptides. Escherichia coli 25922 and Staphylococcus aureus 29213 isolates were purchased from the American Type Culture Collection (ATCC; Manassas, VA, USA). A human clinical isolate of Salmonella enterica serovar Enteritidis was provided by the BC Centre for Disease Control. Bacteria from stocks stored at −80° C. were streaked onto nonselective Columbia blood agar with 5% sheep blood (Oxoid) and incubated overnight at 37° C. Next, 2-4 colonies were streaked onto a new agar plate to ensure uniform health of colonies used in the broth microdilution assay. Isolated colonies were suspended in MHB and the optical density was measured with a spectrophotometer to create an initial inoculum concentration of approximately 1×10^8 cfu/mL. The inoculum was diluted 1:250 to a final concentration of 2-8×10^5 cfu/mL, which was confirmed by performing a Total Viability Count (TVC). The TVC consisted of plating a 1:1000 dilution of the final inoculum on nonselective media and was also used to confirm the health and purity of the inoculum in each trial.\nLyophilized 80 μg peptide aliquots synthesized by GenScript (Piscataway, NJ, USA) were resuspended to 1.28 mg/mL with UltraPure water (Thermo Fisher Scientific, Waltham, MA, USA) and serially diluted in polypropylene 96-well microtiter plates (Greiner Bio-One #650261, Kremsmunster, Austria) from 128 down to 0.5 μg/mL. Two columns per plate were reserved for growth and sterility controls. Inoculum was added to the wells containing the peptide and the growth control. Plates were incubated for 20-24 h at 37° C. The minimum inhibitory concentration (MIC) was determined as the lowest peptide concentration where there was no visible bacterial growth.", "note": "Where a SMILES comes first, the peptide text is derived from it.", "data": [{"smiles": "CC[C@H](C)[C@H](NC(=O)CN)C(=O)N[C@@H](Cc1ccc(O)cc1)C(=O)N[C@H](C(=O)NCC(=O)N[C@@H](CCCNC(=N)N)C(=O)N[C@@H](CC(C)C)C(=O)N[C@@H](CC(C)C)C(=O)N1CCC[C@H]1C(=O)N[C@H](C(=O)N[C@@H](Cc1ccc(O)cc1)C(=O)N[C@H](C(=O)N1CCC[C@H]1C(=O)N[C@@H](CCC(N)=O)C(=O)N1CCC[C@H]1C(=O)N[C@@H](CCCNC(=N)N)C(=O)N1CCC[C@H]1C(=O)N1CCC[C@H]1C(=O)N[C@@H](Cc1c[nH]cn1)C(=O)N1CCC[C@H]1C(=O)N[C@@H](CCCNC(=N)N)C(=O)N[C@@H](CC(C)C)C(=O)N[C@@H](CCCNC(=N)N)C(=O)N[C@@H](CCCNC(=N)N)C(=O)O)[C@@H](C)CC)C(C)C)[C@@H](C)O", "note": "[ApCe1] (H-GIYTGRLLPVYIPQPRPPHPRLRR-OH; N-terminus and C-terminus assumed)", "values": [{"measurement": "inhibitory activity (asterisk)", "result": "695.* GIYTGRLLPVYIPQPRPPHPRLRR"}, {"measurement": "spectrum of antimicrobial activity", "setting": "panel of E. coli, Salmonella Enteritidis, S. aureus, up to 128 μg/mL", "result": "antimicrobial activity against Gram-negative bacterial species but not Gram-positives"}]}, {"smiles": "CC[C@H](C)[C@H](NC(=O)CN)C(=O)N[C@@H](CC(C)C)C(=O)N[C@@H](CCCNC(=N)N)C(=O)N[C@@H](CC(C)C)C(=O)N[C@H](C(=O)N[C@H](C(=O)N[C@@H](CCCNC(=N)N)C(=O)N[C@@H](CCCNC(=N)N)C(=O)N[C@@H](Cc1ccccc1)C(=O)N[C@@H](CCCNC(=N)N)C(=O)N[C@@H](Cc1ccccc1)C(=O)N[C@@H](CO)C(=O)N1CCC[C@H]1C(=O)N[C@H](C(=O)N[C@@H](CC(N)=O)C(=O)N[C@@H](CC(C)C)C(=O)N[C@@H](CC(N)=O)C(=O)N[C@@H](CCCNC(=N)N)C(=O)N[C@@H](Cc1ccc(O)cc1)C(=O)N[C@H](C(=O)N[C@H](C(=O)N[C@@H](C)C(=O)N[C@@H](CCCNC(=N)N)C(=O)N[C@@H](CC(C)C)C(=O)N[C@H](C(=O)N[C@@H](CO)C(=O)NCC(=O)N[C@H](C(=O)N1CCC[C@H]1C(=O)O)C(C)C)C(C)C)C(C)C)[C@@H](C)O)[C@@H](C)O)[C@@H](C)O)C(C)C", "note": "[BoAr6] (H-GILRLVTRRFRFSPTNLNRYTVARLVSGVP-OH; N-terminus and C-terminus assumed)", "values": [{"measurement": "inhibitory activity (asterisk)", "result": "790.* GILRLVTRRFRFSPTNLNRYTVARLVSGVP"}]}, {"smiles": "CC[C@H](C)[C@H](NC(=O)[C@H](CCCCN)NC(=O)[C@@H](N)CCCNC(=N)N)C(=O)N[C@H](C(=O)N[C@@H](C)C(=O)N[C@H](C(=O)N[C@@H](CO)C(=O)N[C@H](C(=O)N[C@@H](Cc1c[nH]cn1)C(=O)N[C@@H](CCCCN)C(=O)N[C@@H](CC(C)C)C(=O)N[C@@H](CS)C(=O)N[C@@H](CCCNC(=N)N)C(=O)N[C@H](C(=O)N[C@@H](CCCCN)C(=O)N[C@@H](CCCNC(=N)N)C(=O)O)C(C)C)C(C)C)C(C)C)[C@@H](C)CC", "note": "[BoUs1, RKIIAVSVHKLCRVKR] (H-RKIIAVSVHKLCRVKR-OH; N-terminus and C-terminus assumed)", "values": [{"measurement": "inhibitory activity (asterisk)", "result": "815.* RKIIAVSVHKLCRVKR"}]}, {"smiles": "CC[C@H](C)[C@H](NC(=O)[C@@H](N)Cc1ccccc1)C(=O)N[C@@H](CCCCN)C(=O)N[C@H](C(=O)N[C@@H](CCC(N)=O)C(=O)N[C@H](C(=O)N[C@@H](CC(C)C)C(=O)N[C@@H](CCCCN)C(=O)N[C@@H](Cc1c[nH]cn1)C(=O)N[C@@H](CC(C)C)C(=O)N[C@H](C(=O)N[C@@H](C)C(=O)NCC(=O)N[C@H](C(=O)N[C@@H](CCCNC(=N)N)C(=O)N[C@H](C(=O)N[C@@H](C)C(=O)N[C@@H](CCCNC(=N)N)C(=O)NCC(=O)N[C@@H](CC(C)C)C(=O)N[C@@H](CC(=O)O)C(=O)N[C@@H](Cc1c[nH]c2ccccc12)C(=O)N[C@@H](CCCCN)C(=O)N[C@@H](Cc1c[nH]c2ccccc12)C(=O)N[C@@H](CCCNC(=N)N)C(=O)O)C(C)C)C(C)C)C(C)C)C(C)C)[C@@H](C)O", "note": "[CaCa2] (H-FIKTQVLKHLVAGVRVARGLDWKWR-OH; N-terminus and C-terminus assumed)", "values": [{"measurement": "inhibitory activity (asterisk)", "result": "819.* FIKTQVLKHLVAGVRVARGLDWKWR"}]}, {"smiles": "CC[C@H](C)[C@H](NC(=O)[C@H](CCCCN)NC(=O)[C@H](CS)NC(=O)[C@H](Cc1ccccc1)NC(=O)[C@H](CCCCN)NC(=O)[C@H](CCCNC(=N)N)NC(=O)[C@H](CO)NC(=O)[C@H](Cc1ccc(O)cc1)NC(=O)CNC(=O)[C@H](CS)NC(=O)[C@@H]1CCCN1C(=O)[C@H](C)NC(=O)[C@@H](NC(=O)[C@H](C)NC(=O)[C@H](Cc1ccccc1)NC(=O)[C@H](Cc1ccccc1)NC(=O)[C@H](Cc1ccccc1)NC(=O)[C@H](CCCNC(=N)N)NC(=O)[C@@H](N)CCCNC(=N)N)[C@@H](C)O)C(=O)N[C@H](C(=O)N[C@@H](CCCNC(=N)N)C(=O)N[C@@H](CCCNC(=N)N)C(=O)N[C@@H](CCCCN)C(=O)N[C@@H](CCCNC(=N)N)C(=O)O)[C@@H](C)O", "note": "[CaCa4] (H-RRFFFATAPCGYSRKFCKITRRKR-OH; N-terminus and C-terminus assumed)", "values": [{"measurement": "inhibitory activity (asterisk)", "result": "816.* RRFFFATAPCGYSRKFCKITRRKR"}]}, {"smiles": "CC(C)C[C@H](NC(=O)[C@@H](NC(=O)[C@H](Cc1ccccc1)NC(=O)[C@H](C)NC(=O)CN)C(C)C)C(=O)N[C@@H](Cc1c[nH]c2ccccc12)C(=O)NCC(=O)N1CCC[C@H]1C(=O)N[C@H](C(=O)N1CCC[C@H]1C(=O)N[C@@H](CCCNC(=N)N)C(=O)N1CCC[C@H]1C(=O)N[C@@H](CCCNC(=N)N)C(=O)N[C@@H](CCCNC(=N)N)C(=O)N[C@@H](CCCNC(=N)N)C(=O)O)[C@@H](C)O", "note": "[DiLo1, GAFVLWGPTPRPRRR] (H-GAFVLWGPTPRPRRR-OH; N-terminus and C-terminus assumed)", "values": [{"measurement": "inhibitory activity (asterisk)", "result": "864.* GAFVLWGPTPRPRRR"}]}, {"smiles": "CC[C@H](C)[C@H](NC(=O)[C@H](C)NC(=O)[C@H](CCCNC(=N)N)NC(=O)[C@@H](N)CCCNC(=N)N)C(=O)N[C@@H](Cc1ccccc1)C(=O)N[C@@H](C)C(=O)N[C@@H](CO)C(=O)N[C@H](C(=O)N[C@@H](CCCNC(=N)N)C(=O)NCC(=O)N[C@@H](Cc1ccc(O)cc1)C(=O)N[C@@H](CC(C)C)C(=O)NCC(=O)N[C@@H](CC(C)C)C(=O)N[C@@H](CCCNC(=N)N)C(=O)N[C@@H](CCCCN)C(=O)N[C@@H](CCCNC(=N)N)C(=O)O)[C@@H](C)CC", "note": "[MyGu1, RRAIFASIRGYLGLRKR] (H-RRAIFASIRGYLGLRKR-OH; N-terminus and C-terminus assumed)", "values": [{"measurement": "inhibitory activity (asterisk)", "result": "881.* RRAIFASIRGYLGLRKR"}]}, {"smiles": "CC[C@H](C)[C@H](NC(=O)[C@H](CCCCN)NC(=O)[C@H](CS)NC(=O)[C@H](CCCCN)NC(=O)[C@H](CC(C)C)NC(=O)[C@H](CC(N)=O)NC(=O)[C@H](CC(=O)O)NC(=O)[C@H](CC(C)C)NC(=O)[C@H](CC(C)C)NC(=O)[C@@H](NC(=O)[C@@H](NC(=O)[C@H](C)NC(=O)[C@@H](NC(=O)[C@H](CC(N)=O)NC(=O)[C@H](CCCCN)NC(=O)[C@H](C)NC(=O)[C@@H](NC(=O)[C@H](CC(N)=O)NC(=O)[C@H](CCCCN)NC(=O)[C@H](C)NC(=O)[C@@H](NC(=O)[C@H](CC(=O)O)NC(=O)[C@H](CCSC)NC(=O)[C@H](Cc1ccccc1)NC(=O)CN)[C@@H](C)O)C(C)C)C(C)C)C(C)C)[C@@H](C)O)C(=O)N[C@H](C(=O)N[C@@H](CCCCN)C(=O)N[C@@H](C)C(=O)N[C@@H](CS)C(=O)O)[C@@H](C)O", "note": "[OdMa13] (H-GFMDTAKNVAKNVAVTLLDNLKCKITKAC-OH; N-terminus and C-terminus assumed)", "values": [{"measurement": "inhibitory activity (asterisk)", "result": "1095.* GFMDTAKNVAKNVAVTLLDNLKCKITKAC"}]}, {"smiles": "CC[C@H](C)[C@H](NC(=O)CNC(=O)[C@H](CCCNC(=N)N)NC(=O)[C@H](CCCCN)NC(=O)[C@H](CCCCN)NC(=O)[C@H](CCCNC(=N)N)NC(=O)[C@@H]1CCCN1C(=O)[C@@H](NC(=O)[C@H](CCSC)NC(=O)[C@H](CC(C)C)NC(=O)[C@@H](N)CCCCN)[C@@H](C)CC)C(=O)N[C@@H](Cc1ccccc1)C(=O)NCC(=O)NCC(=O)N[C@@H](CC(C)C)C(=O)N[C@@H](CC(C)C)C(=O)N[C@@H](CCCCN)C(=O)N[C@H](C(=O)NCC(=O)N[C@@H](CCCCN)C(=O)N[C@@H](CCCCN)C(=O)N[C@H](C(=O)N[C@@H](C)C(=O)N[C@@H](CS)C(=O)NCC(=O)N[C@@H](CC(C)C)C(=O)N[C@@H](CO)C(=O)NCC(=O)N[C@@H](CC(C)C)C(=O)N[C@@H](CS)C(=O)O)[C@@H](C)CC)C(C)C", "note": "[OdTo4] (H-KLMIPRKKRGIFGGLLKVGKKIACGLSGLC-OH; N-terminus and C-terminus assumed)", "values": [{"measurement": "inhibitory activity (asterisk)", "result": "190.* KLMIPRKKRGIFGGLLKVGKKIACGLSGLC"}]}, {"smiles": "CC(C)C[C@H](NC(=O)CN)C(=O)N[C@@H](CC(C)C)C(=O)NCC(=O)N[C@@H](CCCCN)C(=O)N[C@H](C(=O)N[C@@H](CC(C)C)C(=O)NCC(=O)N[C@H](C(=O)NCC(=O)N[C@@H](CCCCN)C(=O)N[C@@H](CCCCN)C(=O)N[C@H](C(=O)N[C@@H](CC(C)C)C(=O)N[C@@H](CS)C(=O)NCC(=O)N[C@H](C(=O)N[C@H](C(=O)NCC(=O)N[C@@H](CCCNC(=N)N)C(=O)N[C@@H](CCC(=O)O)C(=O)N[C@@H](CCCNC(=N)N)C(=O)N[C@@H](CS)C(=O)N[C@@H](CCC(N)=O)C(=O)O)[C@@H](C)O)C(C)C)C(C)C)C(C)C)C(C)C", "note": "[PeNi5] (H-GLLGKVLGVGKKVLCGVTGRERCQ-OH; N-terminus and C-terminus assumed)", "values": [{"measurement": "inhibitory activity (asterisk)", "result": "359.* GLLGKVLGVGKKVLCGVTGRERCQ"}]}]}
